Counter-ions that a name gives are not always drawn.

The assay addresses T1, Savinase® 16.0L (Lederbergia lenta, UniProt P29600).
T1 construct: purchased Sigma-Aldrich
T1 sequence (P29600 1-269): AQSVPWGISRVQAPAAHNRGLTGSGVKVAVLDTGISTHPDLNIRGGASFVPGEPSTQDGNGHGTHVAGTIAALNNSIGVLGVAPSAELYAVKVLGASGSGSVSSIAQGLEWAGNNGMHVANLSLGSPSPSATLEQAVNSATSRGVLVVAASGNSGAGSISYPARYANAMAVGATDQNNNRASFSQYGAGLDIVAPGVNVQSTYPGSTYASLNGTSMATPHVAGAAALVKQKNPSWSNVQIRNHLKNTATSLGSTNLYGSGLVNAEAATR
The assay is described as follows: Protease storage stability in liquid formulations at 37° C. (Suc-AAPF-pNA assay). The assay is classed as biochemical. The note with it: 0.7 wt% Savinase 16.0 L. The method, then:
The storage stability of protease was assessed at 37° C.
Base test formulations were manufactured by making base formulations I to V by mixing the components according to Table 1.
Protease used: Savinase® 16.0L (CAS-No. 9014-01-1, EC-No. 232-752-2) was purchased from Sigma-Aldrich.
The respective component (a) or comparative compound was added, if applicable, to the respective base formulation in amounts as indicated in Table 1.
The amount of protease as provided in Table 1 refers to active protein.
Water was added to accomplish the balance to 100.
Savinase activity at certain points in time as indicated in Table 2 was be determined by employing Succinyl-Ala-Ala-Pro-Phe-p-nitroanilide (Suc-AAPF-pNA, short AAPF) as substrate. pNA is cleaved from the substrate molecule by proteolytic cleavage, resulting in release of yellow color of free pNA which was determined by measuring OD405. Measurements were done at 20° C.
The proteolytic activity values provided in Table 3 were calculated referring to the 100% value determined in the reference formulation at the time 0.
The nomenclature of formulations is as follows: the Roman number before the full stop characterizes the base formulation, the Arabian number the type of compound (A. # compound according to invention (component (a)); (B. #) comparative compound).

Setting [1] is: base formulation II, 2.5 wt% compound, 3 d.
Setting [2] is: base formulation II, 2.5 wt% compound, 7 d.
Setting [3] is: base formulation II, 2.5 wt% compound, 14 d.
[4] abbreviates: base formulation II, 2.5 wt% compound, 21 d.
The mark [5] stands for this setting: base formulation II, 2.5 wt% compound, 28 d.
Where [6] appears, read: base formulation II, 2.5 wt% compound, 35 d.
Where [7] appears, read: base formulation II, 2.5 wt% compound, T0.
Setting [8] is: base formulation III, 2.0 wt% compound, 3 d.
Where [9] appears, read: base formulation III, 2.0 wt% compound, 7 d.
Setting [10] is: base formulation III, 2.0 wt% compound, 14 d.
Where [11] appears, read: base formulation III, 2.0 wt% compound, 21 d.
[12] abbreviates: base formulation III, 2.0 wt% compound, 28 d.
The mark [13] stands for this setting: base formulation III, 2.0 wt% compound, 35 d.
[14] abbreviates: base formulation V, 2.0 wt% compound, 3 d.
Where [15] appears, read: base formulation V, 2.0 wt% compound, 7 d.
The mark [16] stands for this setting: base formulation V, 2.0 wt% compound, 14 d.
Setting [17] is: base formulation V, 2.0 wt% compound, 21 d.
Where [18] appears, read: base formulation V, 2.0 wt% compound, 28 d.
Setting [19] is: base formulation V, 2.0 wt% compound, 35 d.
The mark [20] stands for this setting: base formulation I, 2.5 wt% compound, 3 d.
[21] abbreviates: base formulation I, 2.5 wt% compound, 7 d.
[22] abbreviates: base formulation I, 2.5 wt% compound, 14 d.
Setting [23] is: base formulation I, 2.5 wt% compound, 21 d.
The mark [24] stands for this setting: base formulation I, 2.5 wt% compound, 28 d.
The mark [25] stands for this setting: base formulation I, 2.5 wt% compound, 35 d.

Consider `CCOC(=O)CC(O)(CC(=O)O)C(=O)O` (stereo not shown) [A.6, Monoethylcitrate], for which the “protease activity in the course of time of storage at 37° C.” value (shortened to “protease activity in the course”) turned out to be 102% under setting [1]; 100% under setting [2]; 95% under setting [3]; 92% under setting [4]; 87% under setting [5]; 83% under setting [6]. Further, the “protease activity in the course” value runs as follows: under setting [7], 101%; under setting [8], 96%; under setting [9], 92%; under setting [10], 86%; under setting [11], 82%; under setting [12], 79%. The “protease activity in the course” value by setting is: under setting [13], 76%; (base formulation III, 2.0 wt% compound, T0) 99%.
`O=C(CC(O)(CC(=O)OCc1ccccc1)C(=O)OCc1ccccc1)OCc1ccccc1` [A.8, Tribenzylcitrate]: the “protease activity in the course” value is, setting by setting: under setting [1], 94%; under setting [2], 91%; under setting [3], 88%; under setting [4], 85%; under setting [5], 83%; under setting [6], 77%. Also, the “protease activity in the course” value was 100% under setting [7]; 96% under setting [14]; 92% under setting [15]; 86% under setting [16]; 84% under setting [17]; 80% under setting [18]. Moreover, the “protease activity in the course” value runs as follows: under setting [19], 73%; (base formulation V, 2.0 wt% compound, T0) 96%.
`O=C(O)CC(O)(CC(=O)O)C(=O)O` [B.1, citric acid, reference compound]: the “protease activity in the course” value under setting [20] worked out at 94%; the “protease activity in the course” value under setting [21] is recorded as 86%; the “protease activity in the course” value under setting [22] is listed as 76%; the “protease activity in the course” value under setting [23] worked out at 67%; the “protease activity in the course” value under setting [24] is on record as 62%; the “protease activity in the course” value under setting [25] came out at 57%. The “protease activity in the course” value is recorded as 92% under setting [8]; 84% under setting [9]; 75% under setting [10]; 65% under setting [11]; 60% under setting [12]; 53% under setting [13]. Besides, the “protease activity in the course” value under setting [14] is 93%; the “protease activity in the course” value under setting [15] was determined as 86%; the “protease activity in the course” value under setting [16] is reported as 75%; the “protease activity in the course” value under setting [17] is 65%; the “protease activity in the course” value under setting [18] came to 57%; the “protease activity in the course” value under setting [19] is on record as 50%.
For `O=C(O)CC(O)(CC(=O)O)C(=O)O` [B.2, citric acid trisodium salt, reference compound], the “protease activity in the course” value reads like this: (base formulation I, 2.5 wt% compound, 3 d, trisodium salt) 95%; (base formulation I, 2.5 wt% compound, 7 d, trisodium salt) 84%; (base formulation I, 2.5 wt% compound, 14 d, trisodium salt) 68%; (base formulation I, 2.5 wt% compound, 21 d, trisodium salt) 64%; (base formulation I, 2.5 wt% compound, 28 d, trisodium salt) 59%; (base formulation I, 2.5 wt% compound, 35 d, trisodium salt) 55%. Also, the “protease activity in the course” value reads like this: under setting [1], 95%; under setting [2], 82%; under setting [3], 75%; under setting [4], 66%; under setting [5], 63%; under setting [6], 60%. Also, the “protease activity in the course” value amounted to 93% (base formulation III, 2.0 wt% compound, 3 d, trisodium salt); 83% (base formulation III, 2.0 wt% compound, 7 d, trisodium salt); 73% (base formulation III, 2.0 wt% compound, 14 d, trisodium salt); 62% (base formulation III, 2.0 wt% compound, 21 d, trisodium salt); 57% (base formulation III, 2.0 wt% compound, 28 d, trisodium salt); 50% (base formulation III, 2.0 wt% compound, 35 d, trisodium salt). The “protease activity in the course” value was determined as 91% (base formulation IV, 2.0 wt% compound, 3 d); 86% (base formulation IV, 2.0 wt% compound, 7 d); 70% (base formulation IV, 2.0 wt% compound, 14 d); 64% (base formulation IV, 2.0 wt% compound, 21 d); 58% (base formulation IV, 2.0 wt% compound, 28 d); 52% (base formulation IV, 2.0 wt% compound, 35 d).
Consider `CCOC(=O)C(=O)OCC` [B.3, diethyloxalate, reference compound], for which the “protease activity in the course” value amounted to 90% under setting [20]; 86% under setting [21]; 70% under setting [22]; 65% under setting [23]; 62% under setting [24]; 58% under setting [25]. For the same compound, the “protease activity in the course” value runs as follows: under setting [8], 92%; under setting [9], 85%; under setting [10], 74%; under setting [11], 60%; under setting [12], 55%; under setting [13], 51%.

The values above are taken from patent US20210395650A1, “COMPOUNDS STABILIZING HYDROLASES IN LIQUIDS” (BASF SE, priority 2018, published 2021).
